Measured values published in the NIST ThermoML archive (doi:10.1016/j.jct.2005.03.012).

Test: excess molar enthalpy (molar enthalpy of mixing); xn = mol fraction of the nth substance listed
Details: Liquid

CO [methanol] + O
excess molar enthalpy [kcal/mol]
Details | 8500 kPa | 10000 kPa
505.01 K, x1 = 0.2 | – | 0.0844
505.63 K, x1 = 0.6 | – | 0.0984
505.93 K, x1 = 0.3 | 0.0752 | –
506.02 K, x1 = 0.2 | 0.0617 | –
506.29 K, x1 = 0.4 | 0.0736 | –
506.52 K, x1 = 0.2 | – | 0.0828
506.53 K, x1 = 0.4 | – | 0.108
506.59 K, x1 = 0.1 | 0.0371 | –
506.7 K, x1 = 0.5 | 0.0603 | –
507.3 K, x1 = 0.6 | 0.0391 | –
507.4 K, x1 = 0.8 | – | 0.0512
507.5 K, x1 = 0.6 | – | 0.093
507.82 K, x1 = 0.7 | 0.0164 | –
507.86 K, x1 = 0.1 | 0.0344 | –
508.01 K, x1 = 0.2 | 0.0531 | –
508.15 K, x1 = 0.1 | 0.0342 | –
508.15 K, x1 = 0.2 | 0.0525 | 0.0818
508.15 K, x1 = 0.3 | 0.0606 | –
508.15 K, x1 = 0.4 | 0.0578 | 0.103
508.15 K, x1 = 0.5 | 0.0455 | –
508.15 K, x1 = 0.6 | 0.0288 | 0.0886
508.15 K, x1 = 0.7 | 0.012 | –
508.15 K, x1 = 0.8 | -0.00588 | 0.0489
508.15 K, x1 = 0.9 | -0.0143 | –
508.29 K, x1 = 0.8 | -0.00834 | –
508.45 K, x1 = 0.9 | -0.0172 | –
508.63 K, x1 = 0.8 | – | 0.0472
508.68 K, x1 = 0.4 | 0.0514 | –
509.15 K, x1 = 0.3 | 0.0516 | –
509.29 K, x1 = 0.5 | 0.03 | –
509.71 K, x1 = 0.2 | – | 0.0786
509.71 K, x1 = 0.6 | – | 0.0815
509.71 K, x1 = 0.8 | – | 0.0423
509.91 K, x1 = 0.1 | 0.0298 | –
509.91 K, x1 = 0.2 | 0.0434 | –
509.91 K, x1 = 0.3 | 0.0466 | –
509.91 K, x1 = 0.4 | 0.0384 | –
509.91 K, x1 = 0.5 | 0.0221 | –
509.91 K, x1 = 0.6 | 0.00275 | –
509.91 K, x1 = 0.7 | -0.0163 | –
509.91 K, x1 = 0.8 | -0.0325 | –
509.91 K, x1 = 0.9 | -0.037 | –
510.17 K, x1 = 0.7 | -0.0212 | –
510.19 K, x1 = 0.3 | – | 0.0908
510.22 K, x1 = 0.6 | 0.00151 | –
510.22 K, x1 = 0.8 | -0.0352 | –
510.43 K, x1 = 0.4 | – | 0.0943
510.63 K, x1 = 0.2 | – | 0.0733
510.71 K, x1 = 0.9 | -0.0418 | –
510.88 K, x1 = 0.5 | – | 0.0876
511.51 K, x1 = 0.1 | – | 0.0425
511.67 K, x1 = 0.6 | – | 0.0678
512.18 K, x1 = 0.7 | – | 0.0484
512.47 K, x1 = 0.5 | – | 0.0767
512.6 K, x1 = 0.4 | – | 0.0828
512.67 K, x1 = 0.8 | – | 0.0257
512.9 K, x1 = 0.3 | – | 0.0793
512.9 K, x1 = 0.9 | – | 0.00574
513.15 K, x1 = 0.1 | 0.011 | 0.0396
513.15 K, x1 = 0.2 | 0.00782 | 0.0663
513.15 K, x1 = 0.3 | -0.012 | 0.0779
513.15 K, x1 = 0.4 | -0.0294 | 0.0799
513.15 K, x1 = 0.5 | -0.0556 | 0.0728
513.15 K, x1 = 0.6 | -0.0928 | 0.0598
513.15 K, x1 = 0.7 | -0.14 | 0.0408
513.15 K, x1 = 0.8 | -0.164 | 0.0228
513.15 K, x1 = 0.9 | -0.155 | 0.00569
513.61 K, x1 = 0.2 | – | 0.0641
513.87 K, x1 = 0.1 | – | 0.0385
513.88 K, x1 = 0.6 | – | 0.0498
514.32 K, x1 = 0.1 | -0.00899 | –
514.32 K, x1 = 0.2 | -0.0402 | –
514.32 K, x1 = 0.3 | -0.0669 | –
514.32 K, x1 = 0.4 | -0.118 | –
514.32 K, x1 = 0.5 | -0.16 | –
514.32 K, x1 = 0.6 | -0.183 | –
514.32 K, x1 = 0.7 | -0.214 | –
514.32 K, x1 = 0.8 | -0.247 | –
514.32 K, x1 = 0.9 | -0.28 | –
514.44 K, x1 = 0.9 | – | -0.00217
514.48 K, x1 = 0.7 | – | 0.0282
514.52 K, x1 = 0.8 | – | 0.0107
514.98 K, x1 = 0.1 | – | 0.0354
514.98 K, x1 = 0.2 | – | 0.0587
514.98 K, x1 = 0.3 | – | 0.0676
514.98 K, x1 = 0.4 | – | 0.0676
514.98 K, x1 = 0.5 | – | 0.0582
514.98 K, x1 = 0.6 | – | 0.0411
514.98 K, x1 = 0.7 | – | 0.0222
514.98 K, x1 = 0.8 | – | 0.00755
514.98 K, x1 = 0.9 | – | -0.00311
